Source: US9586931B2 (Merck Sharp & Dohme Corp., priority 2012, dated 2017)
pIC50: −log10 of the molar value.

target: T1, recombinant human GST-Syk (Homo sapiens, UniProt P43405); experiment: Homogeneous Time-Resolved Fluorescence (HTRF) assay for the recombinant human Syk enzyme; format: biochemical; settings: recombinant human GST-Syk 5 pM, ATP 25 μM, 10-dose titration 10 μM to 0.508 nM; read-out: rhSYK Activity IC50
T1 construct: purchased Carna Biosciences 08-176
In short: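 Detection used time-resolved fluorescence 30 min after adding a quench mix (40 mM EDTA, 15 mM Tris pH 7.5, 0.01% Tween 20) containing 2 nM Europium anti-pTyr antibody and 70 nM streptavidin-APC. This followed 45 min of room-temperature peptide phosphorylation by recombinant GST-tagged human Syk.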

Compound	pIC50
CCOC(=O)/C=C/Cn1cc(-c2cc(C)cc(Nc3cc(C(F)(F)F)ccn3)n2)nn1 [Example 5.34, ethyl (2E)-4-[4-(4-methyl-6-{[4-(trifluoromethyl)pyridin-2-yl]amino}pyridin-2-yl)-1H-1,2,3-triazol-1-yl]but-2-enoate]	6.77
Cc1cc(Nc2nccc(C(F)(F)F)n2)cc(-n2cc([Si](C)(C)C)nn2)c1 [Example 15.12, N-{3-methyl-5-[4-(trimethylsilyl)-1H-1,2,3-triazol-1-yl]phenyl}-4-(trifluoromethyl)pyrimidin-2-amine]	6.55
Cc1cc(Nc2cc(C(F)(F)F)ccn2)nc(-c2cn(C3CCC(C(N)=O)C(C)(C)C3)nn2)c1 (single isomer, unassigned) [Example 1.6, 2,2-dimethyl-4-[4-(4-methyl-6-{[4-(trifluoromethyl)pyridin-2-yl]amino}pyridin-2-yl)-1H-1,2,3-triazol-1-yl]cyclohexanecarboxamide]	7.58
COC(=O)CCn1cc(-c2cc(C)cc(Nc3cc(C(F)(F)F)ccn3)n2)nn1 [Example 5.10, methyl 3-[4-(4-methyl-6-{[4-(trifluoromethyl)pyridin-2-yl]amino}pyridin-2-yl)-1H-1,2,3-triazol-1-yl]propanoate]	7.39
Cc1cc(Nc2nccc(C(F)F)n2)cc(-c2cn(CC3(C)CNC(=O)O3)nn2)c1 (single isomer, unassigned) [Example 7.32, 5-{[4-(3-{[4-(difluoromethyl)pyrimidin-2-yl]amino}-5-methylphenyl)-1H-1,2,3-triazol-1-yl]methyl}-5-methyl-1,3-oxazolidin-2-one]	8.30
COC(=O)C(C)n1cc(-c2cc(C)cc(Nc3cc(C(F)(F)F)ccn3)n2)nn1 (stereo not shown) [Example 5.20, methyl 2-[4-(4-methyl-6-{[4-(trifluoromethyl)pyridin-2-yl]amino}pyridin-2-yl)-1H-1,2,3-thiazol-1-yl]propanoate]	7.62
Cc1cc(Nc2cc(C(F)(F)F)ccn2)nc(-c2cn([C@@H](C)C(=O)N3CCC[C@H]3C(=O)O)nn2)c1 [Example 3.13, 1-{(2S)-2-[4-(4-methyl-6-{[4-(trifluoromethyl)pyridin-2-yl]amino}pyridin-2-yl)-1H-1,2,3-triazol-1-yl]propanoyl}proline]	7.02
4-{1-[4-(6-{[4-(cyclohexyloxy)pyridin-2-yl]amino}-4-methylpyridin-2-yl)-1H-1,2,3-triazol-1-yl]ethyl}benzoic acid [Example 2.7]	7.78
Cc1cc(Nc2cc(C(F)(F)F)ccn2)nc(-c2cn(CC3(O)CCOC3)nn2)c1 (racemic) [Example 5.13, 3-{[4-(4-methyl-6-{[4-(trifluoromethyl)pyridin-2-yl]amino}pyridin-2-yl)-1H-1,2,3-triazol-1-yl]methyl}tetrahydrofuran-3-ol]	7.93
Cc1cc(Nc2cc(C(F)(F)F)ccn2)nc(-c2cn(C(C)C(O)CC#N)nn2)c1 (stereo not shown) [Example 4.3, 3-hydroxy-4-[4-(4-methyl-6-{[4-(trifluoromethyl)pyridin-2-yl]amino}pyridin-2-yl)-1H-1,2,3-triazol-1-yl]pentanenitrile]	8.34
Cc1cc(Nc2cc(C(F)(F)F)ccn2)nc(-c2cn(CC(O)CF)nn2)c1 (racemic) [Example 5.93, 1-fluoro-3-[4-(4-methyl-6-{[4-(trifluoromethyl)pyridin-2-yl]amino}pyridin-2-yl)-1H-1,2,3-triazol-1-yl]propan-2-ol]	8.22
Cc1cc(Nc2cc(C(F)(F)F)ccn2)nc(-c2cn(CC(=O)N3CCCC3)nn2)c1 [Example 5.87, 4-methyl-6-[1-(2-oxo-2-pyrrolidin-1-ylethyl)-1H-1,2,3-triazol-4-yl]-N-[4-(trifluoromethyl)pyridin-2-yl]pyridin-2-amine]	7.09
Cc1cc(Nc2cc(C(F)(F)F)ccn2)nc(-c2cn(-c3ccc(C(N)=O)cc3)nn2)c1 [Example 1.15, 4-[4-(4-methyl-6-{[4-(trifluoromethyl)pyridin-2-yl]amino}pyridin-2-yl)-1H-1,2,3-triazol-1-yl]benzamide]	7.81
Cc1cc(Nc2nccc(C(F)(F)F)n2)cc(-c2cn(CC(=O)N3[C@@H](C)COC[C@@H]3C)nn2)c1 (relative stereo) [Example 5.47, N-[3-(1-{2-[trans-3,5-dimethylmorpholin-4-yl]-2-oxoethyl}-1H-1,2,3-triazol-4-yl)-5-methylphenyl]-4-(trifluoromethyl)pyrimidin-2-amine]	7.10
Cc1cc(Nc2cc(C(F)(F)F)ccn2)nc(-c2cn(C3CCC(C(=O)O)C(C)(C)C3)nn2)c1 (single isomer, unassigned) [Example 3.8, 2,2-dimethyl-4-[4-(4-methyl-6-{[4-(trifluoromethyl)pyridin-2-yl]amino}pyridin-2-yl)-1H-1,2,3-triazol-1-yl]cyclohexanecarboxylic acid]	8.01
CCC(O)(CC)Cn1cc(-c2cc(C)cc(Nc3cc(C(F)(F)F)ccn3)n2)nn1 [Example 4.31, 3-{[4-(4-methyl-6-{[4-(trifluoromethyl)pyridin-2-yl]amino}pyridin-2-yl)-1H-1,2,3-triazol-1-yl]methyl}pentan-3-ol]	8.09
Cc1cc(Nc2cc(C(F)(F)F)ccn2)nc(-c2c[nH]nn2)c1 [Example 5.101, 4-methyl-6-(1H-1,2,3-triazol-4-yl)-N-[4-(trifluoromethyl)pyridin-2-yl]pyridin-2-amine]	7.60
Cc1cc(Nc2cc(C(F)(F)F)ccn2)nc(-c2cn(C(C)C(=O)N[C@@H](CO)Cc3ccccc3)nn2)c1 (stereo partly drawn) [Example 1.27, N-[(1R)-1-benzyl-2-hydroxyethyl]-2-[4-(4-methyl-6-{[4-(trifluoromethyl)pyridin-2-yl]amino}pyridin-2-yl)-1H-1,2,3-triazol-1-yl]propanamide]	6.99
Cc1cc(Nc2cc(C(F)(F)F)ccn2)nc(-c2cn(C/C=C/c3ccccc3)nn2)c1 [Example 5.35, 4-methyl-6-{1-[(2E)-3-phenylprop-2-en-1-yl]-1H-1,2,3-triazol-4-yl}-N-[4-(trifluoromethyl)pyridin-2-yl]pyridin-2-amine]	6.52
Cc1cc(Nc2nccc(C(F)(F)F)n2)cc(-c2cn(CC(O)CF)nn2)c1 (racemic) [Example 5.52, 1-fluoro-3-[4-(3-methyl-5-{[4-(trifluoromethyl)pyrimidin-2-yl]amino}phenyl)-1H-1,2,3-triazol-1-yl]propan-2-ol]	7.79
Cc1cc(Nc2cc(C(F)(F)F)ccn2)nc(-c2cn(C(C)C(=O)NCc3cc4ccc(F)cc4[nH]c3=O)nn2)c1 (stereo not shown) [Example 1.43, N-[(7-fluoro-2-oxo-1,2-dihydroquinolin-3-yl)methyl]-2-[4-(4-methyl-6-{[4-(trifluoromethyl)pyridin-2-yl]amino}pyridin-2-yl)-1H-1,2,3-triazol-1-yl]propanamide]	7.19
Cc1cc(Nc2cc(C(F)(F)F)ccn2)nc(-c2cn(CC(O)C(F)(F)F)nn2)c1 (racemic) [Example 5.83, 1,1,1-trifluoro-3-[4-(4-methyl-6-{[4-(trifluoromethyl)pyridin-2-yl]amino}pyridin-2-yl)-1H-1,2,3-triazol-1-yl]propan-2-ol]	8.36
COC(=O)c1ccc(C(CO)n2cc(-c3cc(C)cc(Nc4cc(C(F)(F)F)ccn4)n3)nn2)cc1 (stereo not shown) [Example 4.16, methyl 4-{2-hydroxy-1-[4-(4-methyl-6-{[4-(trifluoromethyl)pyridin-2-yl]amino}pyridin-2-yl)-1H-1,2,3-triazol-1-yl]ethyl}benzoate]	7.39
C/C=C/Cn1cc(-c2cc(C)cc(Nc3cc(C(F)(F)F)ccn3)n2)nn1 [Example 5.38, 6-{1-[(2E)-but-2-en-1-yl]-1H-1,2,3-triazol-4-yl}-4-methyl-N-[4-(trifluoromethyl)pyridin-2-yl]pyridin-2-amine]	7.75

Second part, the compound after the results:

pIC50	Compound
6.19	Cc1cc(Nc2cc(C(F)(F)F)ccn2)nc(-c2nnc(C)n2C)c1 [Example 16.1, 6-(4,5-dimethyl-4H-1,2,4-triazol-3-yl)-4-methyl-N-[4-(trifluoromethyl)pyridin-2-yl]pyridin-2-amine]
6.79	Cc1cc(Nc2nccc(C(F)(F)F)n2)cc(-n2cc(C3(O)CCNC(=O)CC3)nn2)c1 (stereo not shown) [Example 11.4, 5-hydroxy-5-[1-(3-methyl-5-{[4-(trifluoromethyl)pyrimidin-2-yl]amino}phenyl)-1H-1,2,3-triazol-4-yl]azepan-2-one]
7.90	Cc1cc(Nc2nccc(C3CC3)n2)cc(-c2cn(CC(C)(O)C(C)(C)O)nn2)c1 (stereo not shown) [Example 21.26, 1-(4-{3-[(4-cyclopropylpyrimidin-2-yl)amino]-5-methylphenyl}-1H-1,2,3-triazol-1-yl)-2,3-dimethylbutane-2,3-diol]
6.96	COc1nc(Nc2cc(C)cc(-c3cn(CC(C)(O)C(C)(C)O)nn3)c2)ncc1F (stereo not shown) [Example 21.20, 1-(4-{3-[(5-fluoro-4-methoxypyrimidin-2-yl)amino]-5-methylphenyl}-1H-1,2,3-triazol-1-yl)-2,3-dimethylbutane-2,3-diol]
7.94	Cc1cc(Nc2nccc(C(F)F)n2)cc(-c2cn(C(C)C(C)(O)CO)nn2)c1 (single isomer, unassigned) [Example 30.4, 3-(4-(3-((4-(Difluoromethyl)pyrimidin-2-yl)amino)-5-methylphenyl)-1H-1,2,3-triazol-1-yl)-2-methylbutane-1,2-diol]
8.85	Cc1cc(Nc2cc(C(F)F)ccn2)nc(-c2cn(C(C)C(C)(O)CO)nn2)c1 (single isomer, unassigned) [Example 30.7, 3-[4-(6-{[4-(difluoromethyl)pyridin-2-yl]amino}-4-methylpyridin-2-yl)-1H-1,2,3-triazol-1-yl]-2-methylbutane-1,2-diol]
8.14	Cc1cc(Nc2nccc(C(F)F)n2)cc(-c2cn(CC(C)(O)CO)nn2)c1 (single isomer, unassigned) [Example 21.7, 3-[4-(3-{[4-(difluoromethyl)pyrimidin-2-yl]amino}-5-methylphenyl)-1H-1,2,3-triazol-1-yl]-2-methylpropane-1,2-diol]
